The numbers were not newly measured in patent US20240093135A1, “BASE ELEMENT OF A MULTI-CHAMBER BIOCHIP, PRODUCTION OF THE MULTI-CHAMBER BIOCHIP, AND USE THEREOF FOR ESTABLISHING ORGAN AND DISEASE MODELS AND SUBSTANCE TESTS” (Dynamic42 GmbH, priority 2022, published 2024), which cites them from elsewhere.

SMILES strings stand for the structures.

The conditions of the data set: PDMS chips, after 24 hours.

`CCCC1COC(Cn2cncn2)(c2ccc(Cl)cc2Cl)O1` (stereo not shown) [propiconazole]: the “detectable share of the starting concentration in the culture medium” value is reported as “less than 30%”.
